Test results as given in PMC5126721 (ACS Central Science, 2016).

Target: lysozyme (Gallus gallus, UniProt P00698)
Assay: TIMES
Format: binding

Sequence of lysozyme (P00698 19-147): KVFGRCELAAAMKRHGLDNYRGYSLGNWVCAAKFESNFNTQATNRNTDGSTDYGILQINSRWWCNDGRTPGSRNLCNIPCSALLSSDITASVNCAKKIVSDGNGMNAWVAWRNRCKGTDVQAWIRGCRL

- Kd: 39.8 µM
Compound: CC(=O)N[C@H]1[C@H](O[C@H]2[C@H](O)[C@@H](NC(C)=O)C(O)O[C@@H]2CO)O[C@H](CO)[C@@H](O[C@@H]2O[C@H](CO)[C@@H](O)[C@H](O)[C@H]2NC(C)=O)[C@@H]1O (stereo partly shown) [NAG3, N,N′,N″-triacetylchitotriose]
